Data taken from patent US8431704B2, “Quinoline or isoquinoline substituted P2X7 antagonists” (Janssen Pharmaceutica NV, priority 2008, dated 2013).

Molecular target: T1, hP2X7 (Homo sapiens, UniProt Q99572)
T1 construct: expressed in transfected cells; host or cells: 1321N1 astrocytoma cells
T1 sequence (Q99572 1-595): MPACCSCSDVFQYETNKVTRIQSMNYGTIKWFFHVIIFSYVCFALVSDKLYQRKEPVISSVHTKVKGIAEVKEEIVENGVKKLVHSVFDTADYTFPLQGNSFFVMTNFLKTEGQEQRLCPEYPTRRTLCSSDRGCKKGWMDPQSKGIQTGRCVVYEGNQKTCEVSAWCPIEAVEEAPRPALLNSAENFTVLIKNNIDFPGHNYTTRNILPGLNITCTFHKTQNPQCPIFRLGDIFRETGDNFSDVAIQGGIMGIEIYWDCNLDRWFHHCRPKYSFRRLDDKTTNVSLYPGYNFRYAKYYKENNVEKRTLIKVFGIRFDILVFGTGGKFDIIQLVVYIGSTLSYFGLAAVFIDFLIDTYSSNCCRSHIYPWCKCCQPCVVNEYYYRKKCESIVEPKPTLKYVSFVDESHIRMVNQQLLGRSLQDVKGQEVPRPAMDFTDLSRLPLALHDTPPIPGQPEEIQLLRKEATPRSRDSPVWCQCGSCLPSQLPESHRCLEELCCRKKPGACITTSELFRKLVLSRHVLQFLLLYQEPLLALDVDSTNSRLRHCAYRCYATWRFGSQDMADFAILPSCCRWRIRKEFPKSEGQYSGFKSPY
Assay: P2X7 antagonism: ligand-induced Ca2+ flux in 1321N1 astrocytoma cells overexpressing hP2X7
Type: cell-based
Details: pIC50 = -log(IC50), read-out: hP2RX7pIC50 (mean pIC50 values) (converted)
Description: Extracellular binding of ATP to P2X7 that is expressed in the cell-membrane opens the ligand gated cation channel and allows Ca^2+ entry into the cell. This ligand-induced Ca^2+ flux was measured in 1321N1 astrocytoma cells overexpressing hP2X7 for the compounds of the present invention.
The calcium assay kit used (Molecular Devices, R8090), provides a Ca^2+ sensitive dye together with a quenching dye. However, no specifications are given by the manufacturer. The kit most likely consists of a membrane permeable acetoxymethyl (AM) ester of a fluorescent Ca^2+ indicator, such as fluo-4 or fluo-3. Upon cellular uptake, the AM esters get cleaved by esterases, liberating the Ca^2+-sensitive dye which can then bind calcium. The dyes have an absorption spectrum compatible with excitation at 488 nm by argon laser sources and a large fluorescence intensity increase in response to Ca^2+ binding without an accompanying spectral shift. Emission wavelength is in the range of 510-560 nm.
The fluorescence, and thus the changes in intracellular [Ca^2+] in the 1321N1 cells was monitored in time before and after addition of the agonist. The effect of the antagonist was measured as % control and as IC50.

Row | Compound | IC50 [nM]
1 | O=C(NCC(c1cccnc1Cl)N1CCC(F)(F)CC1)c1cccc2ncccc12 (centres unmarked) [Compound 3] | 3630
2 | COc1cc(C(=O)NCC(c2ccc(C(F)(F)F)nc2)N2CCC(F)(F)CC2)nc2ccccc12 (centres unmarked) [Compound 12] | 3240
3 | CCc1cc2cc(C(=O)NCC(c3ccc(C(F)(F)F)nc3)N3CCC(F)(F)CC3)ccc2nc1C (centres unmarked) [Compound 24] | 5250
4 | O=C(NCC(c1ccccn1)N1CCC(F)(F)CC1)c1cccc2ncccc12 (centres unmarked) [Compound 25] | > 10000
5 | O=C(NCC(c1cnc(C(F)(F)F)nc1)N1CCC(F)(F)CC1)c1cccc2nc(NCCCO)ccc12 (centres unmarked) [Compound 40] | 34.7
6 | COc1ccc2c(C(=O)NCC(c3cnc(C(F)(F)F)nc3)N3CCC(F)(F)CC3)cccc2n1 (centres unmarked) [Compound 41] | 45.7
7 | O=C(NCC(c1cnc(C(F)(F)F)nc1)N1CCC(F)(F)CC1)c1cccc2nc(NCC3CC3)ccc12 (centres unmarked) [Compound 42] | 38
8 | O=C(NCC(c1cnc(C(F)(F)F)nc1)N1CCC(F)(F)CC1)c1cccc2nc(N3CCC(O)C3)ccc12 (centres unmarked) [Compound 56] | 49
9 | O=C(NCC(c1cnc(C(F)(F)F)nc1)N1CCCOCC1)c1cccc2nc(NCC3CCOCC3)ccc12 (centres unmarked) [Compound 94] | 81.3
10 | Cc1ncc(C(CNC(=O)c2cccc3nc(N4CCCCC4)ccc23)N2CCOCC2)cn1 (centres unmarked) [Compound 98] | 52.5
11 | CC(C)(C)OC(=O)N1CCN(c2ccc3c(C(=O)NCC(c4cnc(C(F)(F)F)nc4)N4CCCCCC4)cccc3n2)CC1 (centres unmarked) [Compound 107] | 389
12 | O=C(NCC(c1cnc(C(F)(F)F)nc1)N1CCCCCC1)c1cccc2nc(N3CCNCC3)ccc12 (centres unmarked) [Compound 109] | 22.4
13 | CCN1CCN(c2ccc3c(C(=O)NCC(c4cnc(C)nc4)N4CCOCC4)cccc3n2)CC1 (centres unmarked) [Compound 116] | 186
14 | Cc1ncc(C(CNC(=O)c2cccc3nc(OC(C)C)ccc23)N2CCOCC2)cn1 (centres unmarked) [Compound 117] | 182
15 | Cc1ncc(C(CNC(=O)c2cccc3nc(N4CCN(C(C)C)CC4)ccc23)N2CCOCC2)cn1 (centres unmarked) [Compound 118] | 162
16 | Cc1ncc(C(CNC(=O)c2cccc3nc(N4CCCCCC4)ccc23)N2CCOCC2)cn1 (centres unmarked) [Compound 119] | 89.1
17 | Cc1ncc(C(CNC(=O)c2cccc3nc(N4CCOCC4)ccc23)N2CCOCC2)cn1 (centres unmarked) [Compound 122] | 115
18 | O=C(NCC(c1cnc(C(F)(F)F)nc1)N1CCCC(F)(F)C1)c1cccc2nc(N3CCNCC3)ccc12 (centres unmarked) [Compound 127] | 14.1
19 | O=C(NCC(c1cnc(C(F)(F)F)nc1)N1CCCOCC1)c1cccc2nc(N3CCNCC3)ccc12 (centres unmarked) [Compound 128] | 46.8
20 | Cc1ncc(C(CNC(=O)c2cccc3nc(NCCCO)ccc23)N2CCC(F)(F)CC2)cn1 (centres unmarked) [Compound 132] | 63.1
21 | O=C(NCC(c1cnc(O)nc1)N1CCC(F)(F)CC1)c1cccc2nc(N3CCOCC3)ccc12 (centres unmarked) [Compound 144] | 1050
22 | O=C(NCC(c1cnc(C(F)(F)F)nc1)N1CCC(F)(F)CC1)c1cccc2nc(NCC3CCOCC3)ccc12 (centres unmarked) [Compound 146] | 47.9
23 | O=C(NCC(c1cnc(C(F)(F)F)nc1)N1CCC(F)CC1)c1cccc2nc(N3CC(O)C3)ccc12 (centres unmarked) [Compound 155] | 64.6
24 | O=C(NC[C@H](c1cnc(C(F)(F)F)nc1)N1CCC(F)(F)CC1)c1cccc2nc(N3CCNCC3)ccc12 [Compound 171] | 26.9
25 | O=C(NCC(c1cnc(C(F)(F)F)nc1)N1CCOCC1)c1cccc2nc(N3CCN(C4CC4)CC3)ccc12 (centres unmarked) [Compound 173] | 70.8
26 | O=C(NC[C@@H](c1cnc(C(F)(F)F)nc1)N1CCC(F)(F)CC1)c1cccc2nc(NC3CC3)ccc12 [Compound 175] | 44.7
27 | O=C(NCC(c1cnc(N2CCCC2)nc1)N1CCC(F)(F)CC1)c1cccc2nc(N3CCOCC3)ccc12 (centres unmarked) [Compound 176] | 186
28 | CC(C)N1CCN(c2ccc3c(C(=O)NCC(c4cnc(C(F)(F)F)nc4)N4CCOCC4)cccc3n2)CC1 (centres unmarked) [Compound 181] | 93.3

Second part, the compound after the results:

Row | IC50 [nM] | Compound
29 | 43.7 | O=C(NCC(c1ccc(C(F)(F)F)nc1)N1CCC(F)(F)CC1)c1cccc2ncccc12 (single isomer, unassigned) [Compound 10]
30 | 52.5 | O=C(NCC(c1ccc(C(F)(F)F)nc1)N1CCC(F)(F)CC1)c1cccc2ncccc12 (single isomer, unassigned) [Compound 11]
31 | 38 | O=C(NCC(c1cnc(C(F)(F)F)nc1)N1CCC(F)(F)CC1)c1cccc2ncccc12 (single isomer, unassigned) [Compound 47]
32 | 66.1 | O=C(NC[C@H](c1cnc(C(F)(F)F)nc1)N1CCOCC1)c1cccc2nc(NC3CC3)ccc12 (single isomer, unassigned) [Compound 174]
33 | 58.9 | O=C(NCC(c1ccc(C(F)(F)F)nc1)N1CCC(F)(F)CC1)c1cccc2ncccc12 (centres unmarked) [Compound 1]
34 | 21.4 | O=C(NCC(c1ccc(Br)nc1)N1CCC(F)(F)CC1)c1cccc2ncccc12 (centres unmarked) [Compound 2]
35 | 178 | O=C(NCC(c1ccc(C(F)(F)F)nc1)N1CCC(F)(F)CC1)c1ccc2ccccc2n1 (centres unmarked) [Compound 14]
36 | 224 | O=C(NCC(c1ccc(C(F)(F)F)nc1)N1CCC(F)(F)CC1)c1cccc2cnccc12 (centres unmarked) [Compound 16]
37 | 55 | CCCc1cc(C(=O)NCC(c2ccc(C(F)(F)F)nc2)N2CCC(F)(F)CC2)c2ccccc2n1 (centres unmarked) [Compound 18]
38 | > 10000 | O=C(NCC(c1ccc(C(F)(F)F)nc1)N1CCC(c2ccccc2)CC1)c1cccc2ncccc12 (centres unmarked) [Compound 27]
39 | 107 | O=C(NCC(c1ccc(C(F)(F)F)nc1)N1CCOCC1)c1cccc2ncccc12 (centres unmarked) [Compound 31]
40 | 955 | O=C(NCC(c1cnc(C(F)(F)F)nc1)N1CCCC1)c1cccc2ncccc12 (centres unmarked) [Compound 45]
41 | 19.1 | O=C(NCC(c1cnc(C(F)(F)F)nc1)N1CCCCCC1)c1cccc2ncccc12 (centres unmarked) [Compound 52]
42 | 18.2 | O=C(NCC(c1cnc(C(F)(F)F)nc1)N1CCCC(F)(F)C1)c1cccc2ncccc12 (centres unmarked) [Compound 66]
43 | 30.9 | O=C(NCC(c1cnc(C(F)(F)F)nc1)N1CCCC(F)C1)c1cccc2ncccc12 (centres unmarked) [Compound 71]
44 | 302 | CC1CN(C(CNC(=O)c2cccc3ncccc23)c2cnc(C(F)(F)F)nc2)CCO1 (centres unmarked) [Compound 72]
45 | 50.1 | CC1CCCCN1C(CNC(=O)c1cccc2ncccc12)c1cnc(C(F)(F)F)nc1 (centres unmarked) [Compound 73]

Row | IC50 [nM] | Compound
46 | 44.7 | O=C(NCC(c1cnc(C(F)(F)F)nc1)N1CCCOCC1)c1cccc2nc(N3CCOCC3)ccc12 (centres unmarked) [Compound 87]
47 | 85.1 | O=C(NCC(c1cnc(C(F)(F)F)nc1)N1CCCOCC1)c1cccc2nc(NCCO)ccc12 (centres unmarked) [Compound 89]
48 | 87.1 | O=C(NCC(c1cnc(C(F)(F)F)nc1)N1CCCOCC1)c1cccc2nc(NCCCO)ccc12 (centres unmarked) [Compound 90]
49 | 44.7 | O=C(NCC(c1cnc(C(F)(F)F)nc1)N1CCCOCC1)c1cccc2nc(NC3CC3)ccc12 (centres unmarked) [Compound 95]
50 | 251 | CCOc1ccc2c(C(=O)NCC(c3cnc(C)nc3)N3CCOCC3)cccc2n1 (centres unmarked) [Compound 121]
51 | 46.8 | COC1CCN(c2ccc3c(C(=O)NCC(c4cnc(C(F)(F)F)nc4)N4CCOCC4)cccc3n2)CC1 (centres unmarked) [Compound 161]
52 | 45.7 | O=C(NCC(c1cnc(C(F)(F)F)nc1)N1CCOCC1)c1cccc2nc(N3CCCC3)ccc12 (centres unmarked) [Compound 162]
53 | 37.2 | O=C(NCC(c1cnc(C(F)(F)F)nc1)N1CCOCC1)c1cccc2nc(N3CCCCC3)ccc12 (centres unmarked) [Compound 163]
54 | 49 | CCOc1ccc2c(C(=O)NCC(c3cnc(C(F)(F)F)nc3)N3CCOCC3)cccc2n1 (centres unmarked) [Compound 166]
55 | 117 | NC1CCN(c2ccc3c(C(=O)NCC(c4cnc(C(F)(F)F)nc4)N4CCOCC4)cccc3n2)CC1 (centres unmarked) [Compound 167]
56 | 75.9 | CC(C)Nc1ccc2c(C(=O)NCC(c3cnc(C(F)(F)F)nc3)N3CCOCC3)cccc2n1 (centres unmarked) [Compound 168]
57 | 145 | O=C(NCC(c1cnc(C(F)(F)F)nc1)N1CCOCC1)c1cccc2nc(N3CCC(O)C3)ccc12 (centres unmarked) [Compound 172]
58 | 47.9 | O=C(NCC(c1cnc(C(F)(F)F)nc1)N1CCOCC1)c1cccc2nc(N3CCC(F)(F)CC3)ccc12 (centres unmarked) [Compound 177]
59 | 91.2 | O=C(NCC(c1cnc(C(F)(F)F)nc1)N1CCOCC1)c1cccc2nc(N3CCCOCC3)ccc12 (centres unmarked) [Compound 178]
60 | 89.1 | O=C(NCC(c1cnc(C(F)(F)F)nc1)N1CCOCC1)c1cccc2nc(NC3CCCC3)ccc12 (centres unmarked) [Compound 179]
61 | 67.6 | CC(C)CNc1ccc2c(C(=O)NCC(c3cnc(C(F)(F)F)nc3)N3CCOCC3)cccc2n1 (centres unmarked) [Compound 180]
62 | 112 | CC(C)OCCCNc1ccc2c(C(=O)NCC(c3cnc(C(F)(F)F)nc3)N3CCOCC3)cccc2n1 (centres unmarked) [Compound 182]
